The values that follow come from publication PMC2806030, “Inhibition of mammalian S6 kinase by resveratrol suppresses autophagy” (Aging (Albany NY), 2009).

One experiment has as its target NEK3(h) (Homo sapiens, UniProt P51956). Briefly: biochemical. The note with it: read-out: Activity (% of Control). Further details: Upstate KinaseProfiler in vitro kinase activity assay, per cent of DMSO control. As to the method: (§1) Kinase profile and kinase assay. A Kinase profile against 100 kinases listed for resveratrol at 20 μM was generated utilizing Upstate's KinaseProfiler™ service. Assay protocols for each kinase are available from Upstate (Lake Placid, NY). In vitro kinase assay was performed as described previously. Briefly, HEK293 cells were transfected with HA-S6K1 wt, HA-S6K1 K100R, or vector as indicated. Cells were treated with 1 μg/ml insulin for 10 minutes prior to harvesting in PBS + 0.5% NP-40 + protease and phosphatase inhibitors. 125 μg of lysate per sample was immunoprecipitated using 0.5 μg/sample of anti-HA High-Affinity (Roche, Basel Switzerland). Beads from immunoprecipitations were washed three times in lysis buffer and once in kinase buffer, and kinase assays were performed with recombinant GST-S6 as substrate (1 μg per assay). In the indicated lanes varying doses of resveratrol or DMSO control were added to the reaction prior to addition of the GST-S6 substrate. All samples were subjected to SDS-PAGE, and 32P incorporation was quantified by using a Bio-Rad (Hercules, CA) Phosphor-Imager and subsequent analysis with ImageJ (NIH).  Figure 4. Resveratrol inhibits S6K1 in vitro. (A) Structural similarity between resveratrol and quercetin, a known kinase inhibitor. (B) Kinase inhibition profile for resveratrol at 20 μM obtained using KinaseProfiler™ (Upstate). Dashed line represents 100% activity as compared to control. Black filled-in bar on the graph indicates S6K1. Complete data set is provided in Supplementary Table 1. Error bars represent s.d.m. (C) Phosphorylation of recombinant GST-tagged S6 by immunoprecipitated HA-S6K1 under increasing concentrations of resveratrol (Res). Autoradiograph depicts S6K1 phosphorylation of GST-S6. (D) Average of three separate kinase assay experiments as performed in (C). Densitometry was performed using NIH ImageJ. Error bars represent s.e.m. […] Therefore, we hypothesized that the effect of resveratrol on autophagy could be related to inhibition of one or more upstream kinases. To test this, we performed an in vitro kinase screen and determined an inhibition profile for resveratrol. […] With the exception of S6K1, these kinases play primary roles in the hematopoietic system, and were thus viewed as unlikely to have been responsible for the effect we were studying. […] On the other hand, S6K1 is known to play a requisite role in the regulation of autophagy in Drosophila, making it a promising candidate for the in vivo target of resveratrol that is responsible for inhibition of autophagy.

The target of a further experiment is T1, PDGFRß(h) (Homo sapiens, UniProt P09619).
T1 construct: gene PDGFRB
Briefly: biochemical. Also noted: Upstate KinaseProfiler in vitro kinase activity assay, per cent of DMSO control. The note with it: read-out: Activity (% of Control). As to the method:
as §1

Another experiment has as its target T2, SAPK2b(h) (Homo sapiens, UniProt Q15759).
T2 construct: gene MAPK11
Briefly: biochemical. Also noted: Upstate KinaseProfiler in vitro kinase activity assay, per cent of DMSO control. The note with it: read-out: Activity (% of Control). As to the method: as §1

The next experiment deals with Flt3(h) (Homo sapiens, UniProt P36888). Kind of experiment: biochemical. Also noted: Upstate KinaseProfiler in vitro kinase activity assay, per cent of DMSO control. Particulars: read-out: Activity (% of Control). As to the method:
as §1

Another experiment addresses IRAK1(h) (Homo sapiens, UniProt P51617). Kind of experiment: biochemical. Further details: Upstate KinaseProfiler in vitro kinase activity assay, per cent of DMSO control. Particulars: read-out: Activity (% of Control). On the procedure: as §1
The target in another experiment is T3, PKG1ß(h) (Homo sapiens, UniProt Q13976).
T3 construct: gene PRKG1; isoform beta
Kind of experiment: biochemical. Further details: Upstate KinaseProfiler in vitro kinase activity assay, per cent of DMSO control. The note with it: read-out: Activity (% of Control). On the procedure: as §1

The target in a further experiment is T4, TrkB(h) (Homo sapiens, UniProt Q16620).
T4 construct: gene NTRK2
Kind of experiment: biochemical. Also noted: Upstate KinaseProfiler in vitro kinase activity assay, per cent of DMSO control. The note with it: read-out: Activity (% of Control). On the procedure:
as §1

In the next experiment the target is T5, CHK2(h) (Homo sapiens, UniProt O96017).
T5 construct: gene CHEK2
T5 sequence (O96017 whole entry): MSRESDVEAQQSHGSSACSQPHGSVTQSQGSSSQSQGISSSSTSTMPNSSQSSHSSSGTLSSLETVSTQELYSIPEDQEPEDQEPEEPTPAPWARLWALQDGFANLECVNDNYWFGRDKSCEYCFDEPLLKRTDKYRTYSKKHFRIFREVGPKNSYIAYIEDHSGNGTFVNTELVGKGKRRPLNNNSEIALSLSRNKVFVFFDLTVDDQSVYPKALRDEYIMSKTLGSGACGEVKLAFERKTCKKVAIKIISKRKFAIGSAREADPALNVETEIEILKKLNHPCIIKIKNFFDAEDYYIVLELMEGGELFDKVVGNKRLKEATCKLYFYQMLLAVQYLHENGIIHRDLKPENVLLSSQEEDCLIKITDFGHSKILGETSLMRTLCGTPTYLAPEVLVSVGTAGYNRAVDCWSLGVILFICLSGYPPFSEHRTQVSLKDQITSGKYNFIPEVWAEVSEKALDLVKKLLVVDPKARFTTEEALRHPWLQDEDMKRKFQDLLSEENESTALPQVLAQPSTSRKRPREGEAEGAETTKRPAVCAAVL
Kind of experiment: biochemical. Also noted: Upstate KinaseProfiler in vitro kinase activity assay, per cent of DMSO control. Particulars: read-out: Activity (% of Control). On the procedure: as §1

The target in a further experiment is TBK1(h) (Homo sapiens, UniProt Q9UHD2). Briefly: biochemical. Also noted: Upstate KinaseProfiler in vitro kinase activity assay, per cent of DMSO control. The note with it: read-out: Activity (% of Control). On the procedure: as §1
A further experiment deals with T6, ZAP-70(h) (Homo sapiens, UniProt P43403).
T6 construct: gene ZAP70
Kind of experiment: biochemical. Also noted: Upstate KinaseProfiler in vitro kinase activity assay, per cent of DMSO control. The note with it: read-out: Activity (% of Control). As to the method:
as §1

The next experiment deals with ALK(h) (Homo sapiens, UniProt Q9UM73). Kind of experiment: biochemical. Also noted: Upstate KinaseProfiler in vitro kinase activity assay, per cent of DMSO control. The note with it: read-out: Activity (% of Control). As to the method:
as §1

A further experiment deals with T7, SAPK2a(h) (Homo sapiens, UniProt Q16539).
T7 construct: gene MAPK14
Kind of experiment: biochemical. Further details: Upstate KinaseProfiler in vitro kinase activity assay, per cent of DMSO control. Particulars: read-out: Activity (% of Control). On the procedure:
as §1

The next experiment concerns the target PAK2(h) (Homo sapiens, UniProt Q13177). Kind of experiment: biochemical. Further details: Upstate KinaseProfiler in vitro kinase activity assay, per cent of DMSO control. Particulars: read-out: Activity (% of Control). On the procedure:
as §1

The next experiment has as its target T8, JNK2α2(h) (Homo sapiens, UniProt P45984).
T8 construct: gene MAPK9; isoform alpha2
Briefly: biochemical. Further details: Upstate KinaseProfiler in vitro kinase activity assay, per cent of DMSO control. The note with it: read-out: Activity (% of Control). On the procedure:
as §1

The target in another experiment is T9, MST2(h) (Homo sapiens, UniProt Q13188).
T9 construct: gene STK3
T9 sequence (Q13188 whole entry): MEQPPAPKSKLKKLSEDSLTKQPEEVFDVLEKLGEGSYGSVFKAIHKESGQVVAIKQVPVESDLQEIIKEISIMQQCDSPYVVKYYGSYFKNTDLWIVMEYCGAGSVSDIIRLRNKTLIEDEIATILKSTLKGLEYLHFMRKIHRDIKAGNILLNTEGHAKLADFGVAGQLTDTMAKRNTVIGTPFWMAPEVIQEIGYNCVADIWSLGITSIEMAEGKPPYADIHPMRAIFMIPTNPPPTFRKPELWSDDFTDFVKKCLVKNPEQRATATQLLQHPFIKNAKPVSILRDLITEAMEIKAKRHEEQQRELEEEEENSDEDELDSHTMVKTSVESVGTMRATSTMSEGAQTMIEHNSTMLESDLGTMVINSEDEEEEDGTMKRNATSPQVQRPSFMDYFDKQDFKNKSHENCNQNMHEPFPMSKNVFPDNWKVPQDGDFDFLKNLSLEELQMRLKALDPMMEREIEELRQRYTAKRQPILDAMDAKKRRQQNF
Briefly: biochemical. The note with it: read-out: Activity (% of Control). Also noted: Upstate KinaseProfiler in vitro kinase activity assay, per cent of DMSO control. On the procedure: as §1

The target in a further experiment is T10, MEK1(h) (Homo sapiens, UniProt Q02750).
T10 construct: gene MAP2K1
Briefly: biochemical. Further details: Upstate KinaseProfiler in vitro kinase activity assay, per cent of DMSO control. The note with it: read-out: Activity (% of Control). As to the method:
as §1

The target of a further experiment is NLK (Homo sapiens, UniProt Q9UBE8). Kind of experiment: in vitro kinase screen (Upstate KinaseProfiler), single dose […]. Type of experiment: biochemical.
The target in a further experiment is T11, Pim-1 (Homo sapiens, UniProt P11309).
T11 construct: gene PIM1
The description is as above. Type of experiment: biochemical.

Chain of IRAK1(h) (P51617 whole entry): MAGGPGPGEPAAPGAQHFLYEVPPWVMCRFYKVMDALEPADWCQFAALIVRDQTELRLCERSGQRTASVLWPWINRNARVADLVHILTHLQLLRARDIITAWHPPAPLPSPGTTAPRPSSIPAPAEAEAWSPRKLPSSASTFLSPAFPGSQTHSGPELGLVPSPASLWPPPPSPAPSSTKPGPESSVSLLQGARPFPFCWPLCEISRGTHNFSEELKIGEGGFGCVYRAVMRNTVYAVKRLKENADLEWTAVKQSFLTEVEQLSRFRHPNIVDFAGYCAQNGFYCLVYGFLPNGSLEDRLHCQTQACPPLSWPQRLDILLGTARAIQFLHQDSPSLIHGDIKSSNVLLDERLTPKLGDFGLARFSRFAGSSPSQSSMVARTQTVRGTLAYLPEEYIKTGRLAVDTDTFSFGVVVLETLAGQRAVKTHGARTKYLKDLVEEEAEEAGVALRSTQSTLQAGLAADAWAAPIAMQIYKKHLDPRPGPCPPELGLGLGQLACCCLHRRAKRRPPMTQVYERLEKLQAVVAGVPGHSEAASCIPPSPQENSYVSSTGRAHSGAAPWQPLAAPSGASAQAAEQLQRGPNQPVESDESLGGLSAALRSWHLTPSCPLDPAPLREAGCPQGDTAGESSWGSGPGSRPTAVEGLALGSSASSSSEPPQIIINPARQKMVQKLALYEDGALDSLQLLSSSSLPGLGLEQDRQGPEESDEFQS
Chain of NEK3(h) (P51956 whole entry): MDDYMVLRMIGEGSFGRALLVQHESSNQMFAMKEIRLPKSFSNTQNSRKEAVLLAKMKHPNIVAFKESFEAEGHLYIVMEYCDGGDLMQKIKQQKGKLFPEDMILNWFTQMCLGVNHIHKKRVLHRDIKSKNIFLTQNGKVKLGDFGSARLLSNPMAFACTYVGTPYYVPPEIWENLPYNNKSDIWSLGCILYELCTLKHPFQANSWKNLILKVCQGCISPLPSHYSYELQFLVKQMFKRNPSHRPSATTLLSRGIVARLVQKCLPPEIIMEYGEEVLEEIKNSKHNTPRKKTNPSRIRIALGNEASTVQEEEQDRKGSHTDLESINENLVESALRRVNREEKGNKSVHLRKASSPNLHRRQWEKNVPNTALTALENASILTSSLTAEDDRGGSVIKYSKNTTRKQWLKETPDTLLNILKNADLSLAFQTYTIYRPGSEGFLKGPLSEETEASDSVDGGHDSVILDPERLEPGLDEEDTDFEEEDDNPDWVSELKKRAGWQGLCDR
Chain of Flt3(h) (P36888 whole entry): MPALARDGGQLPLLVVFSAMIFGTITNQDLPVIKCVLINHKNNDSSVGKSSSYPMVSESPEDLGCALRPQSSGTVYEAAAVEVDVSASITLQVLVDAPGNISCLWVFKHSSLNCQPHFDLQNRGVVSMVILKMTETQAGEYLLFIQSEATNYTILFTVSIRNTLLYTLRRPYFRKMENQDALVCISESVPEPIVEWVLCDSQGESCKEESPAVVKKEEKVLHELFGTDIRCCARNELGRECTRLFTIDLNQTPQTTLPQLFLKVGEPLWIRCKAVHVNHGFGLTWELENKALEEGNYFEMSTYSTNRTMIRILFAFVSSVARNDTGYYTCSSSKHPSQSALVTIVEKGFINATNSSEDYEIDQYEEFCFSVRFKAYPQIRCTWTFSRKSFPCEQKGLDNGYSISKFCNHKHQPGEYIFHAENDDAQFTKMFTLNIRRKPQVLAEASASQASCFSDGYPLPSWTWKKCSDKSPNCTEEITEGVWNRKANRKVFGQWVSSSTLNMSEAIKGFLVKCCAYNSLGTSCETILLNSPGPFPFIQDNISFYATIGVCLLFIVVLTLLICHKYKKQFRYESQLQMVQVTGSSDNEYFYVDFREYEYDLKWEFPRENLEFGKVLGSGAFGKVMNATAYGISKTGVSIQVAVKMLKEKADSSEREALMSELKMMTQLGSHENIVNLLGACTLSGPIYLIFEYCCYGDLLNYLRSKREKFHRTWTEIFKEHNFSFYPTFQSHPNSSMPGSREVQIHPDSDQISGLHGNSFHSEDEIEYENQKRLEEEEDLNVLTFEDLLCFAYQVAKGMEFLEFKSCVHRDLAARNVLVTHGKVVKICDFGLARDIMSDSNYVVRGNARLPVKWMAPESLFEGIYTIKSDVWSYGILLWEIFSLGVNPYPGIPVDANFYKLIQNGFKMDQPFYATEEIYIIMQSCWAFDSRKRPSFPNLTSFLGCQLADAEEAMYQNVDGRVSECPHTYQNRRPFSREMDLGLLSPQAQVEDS
Chain of ALK(h) (Q9UM73 whole entry): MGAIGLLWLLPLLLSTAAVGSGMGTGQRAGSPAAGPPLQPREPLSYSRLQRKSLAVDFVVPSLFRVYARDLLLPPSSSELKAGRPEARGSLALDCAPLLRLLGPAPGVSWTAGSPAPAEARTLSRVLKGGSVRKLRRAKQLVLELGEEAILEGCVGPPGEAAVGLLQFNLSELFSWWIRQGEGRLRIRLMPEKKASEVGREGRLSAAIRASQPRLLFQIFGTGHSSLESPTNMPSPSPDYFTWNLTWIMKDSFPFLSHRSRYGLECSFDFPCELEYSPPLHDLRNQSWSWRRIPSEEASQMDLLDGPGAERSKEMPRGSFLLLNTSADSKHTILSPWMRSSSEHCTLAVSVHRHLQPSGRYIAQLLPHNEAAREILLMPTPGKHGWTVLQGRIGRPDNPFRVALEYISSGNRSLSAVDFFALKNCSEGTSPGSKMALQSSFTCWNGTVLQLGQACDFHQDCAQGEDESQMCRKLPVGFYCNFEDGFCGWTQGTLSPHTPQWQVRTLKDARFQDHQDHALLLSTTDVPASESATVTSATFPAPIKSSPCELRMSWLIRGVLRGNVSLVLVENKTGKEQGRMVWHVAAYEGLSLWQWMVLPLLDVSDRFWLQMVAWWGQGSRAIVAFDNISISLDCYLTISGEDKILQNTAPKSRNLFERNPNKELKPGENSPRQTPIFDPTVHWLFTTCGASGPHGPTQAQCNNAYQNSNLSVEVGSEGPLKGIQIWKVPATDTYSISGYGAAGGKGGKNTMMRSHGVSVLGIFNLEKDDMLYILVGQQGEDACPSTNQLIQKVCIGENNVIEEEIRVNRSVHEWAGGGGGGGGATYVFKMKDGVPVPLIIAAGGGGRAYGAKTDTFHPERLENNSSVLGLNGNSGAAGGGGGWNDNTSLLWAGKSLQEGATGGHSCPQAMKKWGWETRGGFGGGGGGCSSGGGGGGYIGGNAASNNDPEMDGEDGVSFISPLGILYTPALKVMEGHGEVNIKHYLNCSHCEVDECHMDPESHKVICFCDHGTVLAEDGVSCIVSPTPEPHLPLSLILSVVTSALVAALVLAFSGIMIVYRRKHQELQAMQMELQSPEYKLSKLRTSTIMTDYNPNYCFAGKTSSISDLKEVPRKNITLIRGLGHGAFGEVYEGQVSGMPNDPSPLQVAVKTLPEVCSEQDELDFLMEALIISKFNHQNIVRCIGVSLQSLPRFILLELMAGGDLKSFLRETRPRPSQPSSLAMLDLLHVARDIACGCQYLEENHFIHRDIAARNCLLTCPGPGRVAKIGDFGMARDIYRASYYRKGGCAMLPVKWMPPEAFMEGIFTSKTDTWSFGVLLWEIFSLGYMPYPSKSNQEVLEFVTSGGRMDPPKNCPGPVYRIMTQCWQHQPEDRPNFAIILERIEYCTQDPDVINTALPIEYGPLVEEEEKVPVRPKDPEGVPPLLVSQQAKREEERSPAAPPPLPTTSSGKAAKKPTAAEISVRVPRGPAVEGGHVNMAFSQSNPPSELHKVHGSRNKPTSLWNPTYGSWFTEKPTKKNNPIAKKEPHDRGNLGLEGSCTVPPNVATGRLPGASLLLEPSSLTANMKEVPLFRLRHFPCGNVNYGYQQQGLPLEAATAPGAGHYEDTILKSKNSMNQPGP

With `Oc1ccc(/C=C/c2cc(O)cc(O)c2)cc1` [Res, resveratrol], the remaining activity at 20 µM is 96 ± 8% at NEK3(h); 119 ± 2% on PDGFRß(h); 100 ± 1% on SAPK2b(h); 41 ± 1% at Flt3(h); 97% on IRAK1(h); 56 ± 4% on PKG1ß(h). Also, the remaining activity at 20 µM on TrkB(h) stood at 98 ± 1%; on CHK2(h) it was 59 ± 6%; on TBK1(h) it was 62 ± 4%; on ZAP-70(h), 141 ± 2%; at ALK(h), 39%; on SAPK2a(h), 100 ± 4%. Further, the remaining activity at 20 µM at PAK2(h) turned out to be 98 ± 4%; at JNK2α2(h) it was 110 ± 4%; on MST2(h), 73 ± 8%; at MEK1(h), 110 ± 5%. Also, the “in vitro kinase screen (Upstate KinaseProfiler), single dose 20 μM” value at NLK is “Jak2, NLK, p70 S6 kinase (S6K1), Pim-1, and Pim-2 emerged as potential targets of resveratrol”; on Pim-1 it was “Jak2, NLK, p70 S6 kinase (S6K1), Pim-1, and Pim-2 emerged as potential targets of resveratrol”.
